Measured values published in patent US10301664B2, “Repurposing non-antimicrobial drugs and clinical molecules to treat bacterial infections” (Purdue Research Foundation, priority 2015, dated 2019).
Where two headings read alike, the source gives them in different places.

What was measured:
[1] = tested on: MRSA USA300; assay: Library hits: MIC/MBC against MRSA; assay type: cell-based, Staphylococcus aureus; details: Staphylococcus aureus
[2] = tested on: MRSA USA200; assay type: in vivo, BALB/c mice; details: EB 30 mg/kg or FdUrd 25 mg/kg once daily for three days, monitored six days
Protocol: Animal procedures were approved by the Purdue University Animal Care and Use Committee (PACUC) (protocol no. 1311000988). Eight-week-old female BALB/c mice (Harlan Laboratories, Indianapolis, Ind.) were used for this study. Mice were rendered neutropenic by treatment with cyclophosphamide intraperitoneally (IP) 150 and 100 mg/kg at four days and one day before infection, respectively. Neutropenic mice were inoculated IP with 8×10^8 MRSA USA200. At one hour after infection, the mice were divided into five groups (n=10 per group), and two groups were treated orally with either EB 30 mg/kg or FdUrd 25 mg/kg. Two groups were treated IP with either EB 30 mg/kg or FdUrd 25 mg/kg. One group was used as a control with no treatment. Treatment was continued once daily for two more days (animals received three doses total). Mortality was monitored four times daily for six days, and the cumulative percent survival was determined. The data were subjected to statistical analysis using Kaplan-Meier survival curves. A log rank test was performed for 95% confidence intervals by GraphPad Prism 6.0 (GraphPad Software, La Jolla, Calif.).

[3] = tested on: E. faecium ATCC 700221 (VRE); assay: MIC and MBC against E. faecium VRE (CLSI), Table 1; assay type: cell-based; details: Enterococcus faecium
[4] = tested on: vancomycin resistant E. faecium ATCC 700221 (VRE); assay: Library hits: MIC/MBC against VRE; assay type: cell-based; details: VRE
[5] = tested on: E. fecalis ATCC 51229 (VRE); assay: MIC and MBC against E. fecalis VRE (CLSI); assay type: cell-based; details: Enterococcus
Protocol: The NIH Clinical Collections 1 and 2 (http://www.nihclinicalcollection.com) containing 727 FDA approved drugs and small molecules previously used in human clinical trials with known safety profiles were screened against ESKAPE pathogens. The library was initially screened at a single concentration of 16 μM to identify “hit” non-antibacterial drugs. Once the antimicrobial activity of the drugs was confirmed, we determined their MICs and minimum bactericidal concentrations (MBCs) according to the Clinical and Laboratory Standards Institute (CLSI).

[6] = tested on: Methicillin-sensitive S. aureus (MSSA); assay: MIC and MBC against methicillin-sensitive S. aureus isolates (CLSI); assay type: cell-based; details: Staphylococcus aureus; for MBC: read-out: MBC; for MIC: read-out: MIC
[7] = tested on: Methicillin resistant S. aureus (MRSA); assay: MIC and MBC against methicillin resistant S. aureus clinical isolates (CLSI); assay type: cell-based; details: Staphylococcus aureus; for MBC: read-out: MBC; for MIC: read-out: MIC
[8] = tested on: clinical isolates of S. aureus; assay: MIC90 over clinical isolates of S. aureus; assay type: cell-based; details: Staphylococcus aureus, Table 1, read-out: MIC90 (MIC at which 90% of clinical isolates of S. aureus were inhibited)
[9] = tested on: Vancomycin-resistant S. aureus (VRSA); assay: MIC and MBC against vancomycin-resistant S. aureus clinical isolates (CLSI); assay type: cell-based; details: Staphylococcus aureus, VRSA; for MBC: read-out: MBC; for MIC: read-out: MIC
[10] = tested on: S. epidermidis NRS 101; assay: MIC and MBC against S. epidermidis (CLSI); assay type: cell-based; details: Staphylococcus epidermidis, NRS101
[11] = tested on: E. cloacae ATCC BAA-1143; assay: Library hits: MIC against E. cloacae; assay type: cell-based
[12] = tested on: Vancomycin-intermediate S. aureus (VISA); assay: MIC and MBC against vancomycin-intermediate S. aureus isolates (CLSI); assay type: cell-based; details: Staphylococcus aureus; for MBC: read-out: MBC; for MIC: read-out: MIC
[13] = MRSA / NRS 119, NRS119 (resistant to linezolid)

O=c1[nH]c(=O)n([C@H]2C[C@H](O)[C@@H](CO)O2)cc1F [FdUrd, 5-fluoro-2′-deoxyuridine]
7.8 ng/mL: MIC ([7]; MRSA / NRS 108) | MBC ([7]; MRSA / NRS 382) | MBC ([7]; MRSA / NRS 383) | MIC ([7]; MRSA / NRS 383) | MBC ([7]; MRSA / NRS 386, NRS 386) | MBC ([7]; MRSA / NRS 483, NRS 483) | MBC ([9]; VRSA1) | MIC ([9]; VRSA1) | MBC [10] | MIC [10] | MBC ([12]; NRS 37 / VISA)
0.5 µM: MBC ([1]; read-out: MBC) | MBC [4]
60%: mice survival compared to that of control ([2]; oral)
62.5 ng/mL: MIC [3] | MBC ([7]; MRSA / NRS 194)
0.49 ng/mL: MBC ([6]; MSSA / NRS 77) | MIC ([6]; MSSA / NRS 77) | MBC ([9]; VRSA3b) | MIC ([9]; VRSA3b) | MIC ([9]; VRSA6) | MIC ([9]; VRSA8) | MIC ([12]; NRS 19 / VISA)
3.9 ng/mL: MBC ([6]; MSSA / NRS 846) | MIC ([6]; MSSA / NRS 846) | MIC ([7]; MRSA / NRS 70) | MIC [7, 13] | MBC ([7]; MRSA / NRS 123) | MIC ([7]; MRSA / NRS 194) | MIC ([7]; MRSA / NRS 387, NRS 387) | MBC ([7]; MRSA / NRS 484, NRS 484) | MIC90 [8] | MIC ([9]; VRSA2) | MBC ([9]; VRSA4) | MBC ([9]; VRSA7) | MBC ([9]; VRSA11b) | MBC ([9]; VRSA12)
1.95 ng/mL: MBC ([6]; MSSA / NRS 72) | MBC ([6]; MSSA / NRS 860) | MIC ([6]; MSSA / NRS 860) | MBC ([7]; MRSA / NRS 71) | MIC ([7]; MRSA / NRS 71) | MBC ([7]; MRSA / NRS 384, NRS 384) | MIC ([7]; MRSA / NRS 384, NRS 384) | MIC ([7]; MRSA / NRS 386, NRS 386) | MIC ([7]; MRSA / NRS 483, NRS 483) | MIC ([9]; VRSA4) | MBC ([9]; VRSA5) | MIC ([9]; VRSA5) | MBC ([9]; VRSA6) | MIC ([9]; VRSA7) | MBC ([9]; VRSA9) | MIC ([9]; VRSA12) | MIC ([9]; VRSA13) | MBC ([12]; NRS 1 / VISA, NRS 1) | MIC ([12]; NRS 1 / VISA, NRS 1) | MBC ([12]; NRS 19 / VISA) | MIC ([12]; NRS 37 / VISA)
3.15 ng/mL: MBC ([7]; MRSA / NRS 70)
>16 µM: MIC/MBC [11]
125 ng/mL: MBC [3] | MBC [5] | MIC [5]
15.6 ng/mL: MBC ([7]; MRSA / NRS 108) | MBC [7, 13] | MBC ([7]; MRSA / NRS 387, NRS 387) | MBC ([9]; VRSA2) | MBC ([9]; VRSA11a) | MBC ([9]; VRSA13)
< 0.5 µM: MIC ([1]; read-out: MIC) | MIC ([4]; read-out: MIC)
100%: mice survival compared to that of control ([2]; IP)
31.5 ng/mL: MBC ([7]; MRSA / NRS 385, NRS 385) | MIC ([7]; MRSA / NRS 385, NRS 385)
0.975 ng/mL: MIC ([6]; MSSA / NRS 72) | MBC ([7]; MRSA / NRS 100) | MIC ([7]; MRSA / NRS 100) | MIC ([7]; MRSA / NRS 123) | MIC ([7]; MRSA / NRS 382) | MIC ([7]; MRSA / NRS 484, NRS 484) | MBC ([9]; VRSA3a) | MIC ([9]; VRSA3a) | MBC ([9]; VRSA8) | MIC ([9]; VRSA9) | MBC ([9]; VRSA10) | MIC ([9]; VRSA10) | MIC ([9]; VRSA11a) | MIC ([9]; VRSA11b)
